Consider 18 molecules from PubChem BioAssay (NCI).

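A five-concentration, 48-hour dose response in 96-well plates underlies each endpoint, interpolated linearly between surrounding concentrations. The concentration for 50% growth inhibition is given as GI50. TGI: total growth inhibition.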

Among the test systems are NCI-H522 lung; EKVX NSCLC; SF-295 CNS; SW-620 colon; U251 CNS; COLO 205 colon; HL-60(TB) leukemia; MDA-MB-435; MALME-3M melanoma; LOX IMVI melanoma.
Holding throughout (assay): NCI anticancer screen, dose series, 48 h

As for `COc1ccc(-c2nn(-c3ccc(NC(=O)Nc4ccc(Cl)c(Cl)c4)cc3)cc2-c2ccncc2)cc1Cl`, the GI50 in the assay on NCI-H522 lung is 1.39 µM; with EKVX NSCLC, 2.18 µM; with SF-295 CNS, 2.21 µM; with SW-620 colon it was 3.31 µM; in the assay with U251 CNS, 1.36 µM; with COLO 205 colon, 2.19 µM. Besides, the GI50 with HL-60(TB) leukemia was 2.21 µM; with MDA-MB-435 it was 2.3 µM; with MALME-3M melanoma, 2.47 µM; in the assay with LOX IMVI melanoma it was 2.24 µM. The TGI was 5.66 µM in the assay with NCI-H522 lung; over 100 µM in the assay with EKVX NSCLC; over 100 µM in the assay on SF-295 CNS; over 100 µM in the assay with SW-620 colon; over 100 µM with U251 CNS; 5.27 µM in the assay on COLO 205 colon. The TGI with HL-60(TB) leukemia is 6.6 µM; in the assay on MDA-MB-435 it was over 100 µM; in the assay on MALME-3M melanoma, 8.47 µM; in the assay on LOX IMVI melanoma, 10.4 µM.

`Nc1cc(S(=O)(=O)O)cc2cc(S(=O)(=O)O)c(N=Nc3ccc(-c4ccc(N=Nc5c(S(=O)(=O)O)cc6cc(S(=O)(=O)O)cc(N)c6c5O)cc4)cc3)c(O)c12`: the TGI in the assay on NCI-H522 lung, in the assay on EKVX NSCLC, in the assay with SF-295 CNS, in the assay on SW-620 colon, in the assay on U251 CNS and with COLO 205 colon was over 100 µM in each case. The TGI in the assay on HL-60(TB) leukemia, with MALME-3M melanoma and in the assay with LOX IMVI melanoma was over 100 µM each time.

Turning to `C/C1=N\NC(=O)c2ccccc2C(=O)N/N=C(\C)c2cccc1n2.O=[N+]([O-])[O-].[Zn+2]`, the TGI in the assay on NCI-H522 lung, with EKVX NSCLC, in the assay with SF-295 CNS, in the assay with SW-620 colon, in the assay on U251 CNS and with COLO 205 colon was over 100 µM throughout. The molecule further returned a TGI in the assay with MALME-3M melanoma of over 100 µM.

For `O=Nc1ccc(O)c2ncccc12`, the TGI with NCI-H522 lung amounted to 3.58 µM; with EKVX NSCLC, 5.8 µM; with SF-295 CNS, 36 µM; in the assay with SW-620 colon, 18.2 µM; in the assay on U251 CNS it was 14.5 µM; in the assay on COLO 205 colon, 30.6 µM. Also, the TGI in the assay on HL-60(TB) leukemia was over 41.6 µM; in the assay with MDA-MB-435, 3.83 µM; in the assay on MALME-3M melanoma, 25.6 µM; in the assay with LOX IMVI melanoma, 18.6 µM.

For `O=C(O)CC(C(=O)O)C1c2ccccc2-c2ccccc21` (stereo not given), the TGI with NCI-H522 lung, in the assay on EKVX NSCLC, in the assay on SF-295 CNS, in the assay with SW-620 colon, in the assay with U251 CNS and with COLO 205 colon was over 100 µM throughout. The TGI in the assay on HL-60(TB) leukemia, in the assay with MDA-MB-435, with MALME-3M melanoma and in the assay on LOX IMVI melanoma was over 100 µM each time.

Consider `CC(C)=CCc1c(O)ccc2c1OC1c3ccc(O)c(CC=C(C)C)c3OCC21` (stereo not given), for which the TGI is 25.5 µM in the assay with NCI-H522 lung; 26.8 µM with EKVX NSCLC; 24.3 µM in the assay on SF-295 CNS; 22.5 µM in the assay with SW-620 colon; 21.3 µM with U251 CNS; 33 µM in the assay on COLO 205 colon. In addition, the TGI turned out to be 31.4 µM with HL-60(TB) leukemia, 33.6 µM in the assay with MALME-3M melanoma and 22.3 µM in the assay with LOX IMVI melanoma.

For `O=[N+]([O-])c1ccc(/C=N\Nc2ccc([N+](=O)[O-])cn2)cc1`, the TGI with NCI-H522 lung, with EKVX NSCLC, in the assay with SF-295 CNS, in the assay on SW-620 colon, in the assay with U251 CNS and in the assay with COLO 205 colon was over 100 µM each time. Also, the TGI in the assay with HL-60(TB) leukemia, with MDA-MB-435 and with MALME-3M melanoma was over 100 µM each time.

Take `c1ccc(-n2cnnc2-c2nsc3ccccc23)cc1`: the TGI in the assay on EKVX NSCLC, in the assay on SW-620 colon, with U251 CNS, in the assay with COLO 205 colon, in the assay on HL-60(TB) leukemia and in the assay on LOX IMVI melanoma was over 100 µM each time.

Turning to `COc1cc(C(C)(C)C)cc(OC)c1C(O)(c1c(OC)cc(C(C)(C)C)cc1OC)c1c(OC)cc(C(C)(C)C)cc1OC`, the GI50 in the assay with NCI-H522 lung was 0.237 µM; with SF-295 CNS, 0.221 µM; with SW-620 colon, 0.406 µM; in the assay on U251 CNS, 0.0636 µM; in the assay with COLO 205 colon it was 0.188 µM; in the assay with HL-60(TB) leukemia, 0.14 µM. Besides, the results for the GI50 in the assay with MDA-MB-435, in the assay with MALME-3M melanoma and in the assay with LOX IMVI melanoma were 0.306 µM, 0.234 µM and 0.357 µM, respectively. Moreover, the TGI turned out to be 0.768 µM in the assay on NCI-H522 lung; 0.479 µM with SF-295 CNS; 1.55 µM in the assay on SW-620 colon; 1.23 µM with U251 CNS; 0.34 µM in the assay on COLO 205 colon; 0.394 µM in the assay with HL-60(TB) leukemia. The TGI with MDA-MB-435 worked out at 0.974 µM; in the assay on MALME-3M melanoma, 0.683 µM; in the assay with LOX IMVI melanoma it was 1.45 µM.

Regarding `CN1CCC(C(=O)NNc2ccccc2)CC1`, the TGI in the assay on NCI-H522 lung is over 100 µM; in the assay with EKVX NSCLC it was over 100 µM; in the assay with SF-295 CNS, 33 µM; in the assay with SW-620 colon, over 63.3 µM; in the assay with U251 CNS it was over 100 µM; in the assay on COLO 205 colon, 10.2 µM. Further, the results for the TGI in the assay on HL-60(TB) leukemia, with MALME-3M melanoma and with LOX IMVI melanoma were over 100 µM, 98.5 µM and 11.3 µM, respectively.

`COc1ccc2[nH]c3c([N+](=O)[O-])ccc(Cl)c3c(=O)c2c1`: the TGI in the assay with NCI-H522 lung is 36.9 µM; with EKVX NSCLC it was over 100 µM; in the assay with SF-295 CNS, over 100 µM; in the assay on SW-620 colon, 42.8 µM; in the assay on U251 CNS, over 64.1 µM; in the assay on COLO 205 colon it was 32.7 µM. Besides, the TGI with HL-60(TB) leukemia is 9.84 µM; in the assay on MDA-MB-435, over 55.8 µM; in the assay with MALME-3M melanoma, 40.4 µM; with LOX IMVI melanoma, 34.5 µM.

`N=C(N)c1ccc(-c2ccc(-c3cncc4ccccc34)s2)cc1F`: the GI50 with NCI-H522 lung is 2.2 µM; in the assay with SF-295 CNS, 1.72 µM; in the assay with SW-620 colon, 1.69 µM; with COLO 205 colon it was 1.87 µM; with MDA-MB-435, 1.86 µM; in the assay on MALME-3M melanoma it was 1.74 µM. For the same molecule, the TGI in the assay on NCI-H522 lung amounted to 5.56 µM; in the assay on SF-295 CNS, 3.27 µM; with SW-620 colon, 3.76 µM; with COLO 205 colon, 3.94 µM; with MDA-MB-435 it was 3.49 µM; in the assay with MALME-3M melanoma, 3.51 µM.

`C=C1C(=O)OC2/C=C(\C)C(=O)CC3OC(C)(C)OC3(C)CC(OC(=O)/C(C)=C/C)C12` (stereo not given): the TGI was 9.82 µM with NCI-H522 lung; 34.2 µM with EKVX NSCLC; 98.2 µM in the assay on SF-295 CNS; 98.7 µM in the assay with SW-620 colon; over 75.2 µM in the assay with U251 CNS; over 59.7 µM with COLO 205 colon. Besides, the TGI in the assay with HL-60(TB) leukemia was over 23.4 µM; in the assay with MDA-MB-435 it was over 68.2 µM; with MALME-3M melanoma it was 28 µM; in the assay with LOX IMVI melanoma, 27.3 µM.

For `Cc1ccc(P(c2ccc(C)cc2)c2ccc(C)cc2)cc1`, the TGI in the assay on NCI-H522 lung is 28.2 µM; in the assay on EKVX NSCLC it was over 100 µM; with SF-295 CNS it was over 100 µM; in the assay with SW-620 colon it was over 100 µM; with U251 CNS, 43 µM; with COLO 205 colon, 44.6 µM. For the same molecule, the TGI in the assay on HL-60(TB) leukemia is over 100 µM; in the assay on MDA-MB-435 it was 41.1 µM; with MALME-3M melanoma it was 42.4 µM; with LOX IMVI melanoma, 30.4 µM.

In the case of `OC(Cc1ccccc1)(Cc1ccccc1)c1ccccc1`, the TGI came to 32.3 µM with NCI-H522 lung; 38 µM with EKVX NSCLC; 34.9 µM with SF-295 CNS; 52.2 µM in the assay on SW-620 colon; 32.8 µM in the assay with U251 CNS; 52.8 µM with HL-60(TB) leukemia. Further, the values for the TGI in the assay on MDA-MB-435, with MALME-3M melanoma and with LOX IMVI melanoma were 33.4 µM, 27.1 µM and 37.1 µM, respectively.

Turning to `C=C(C)C(=O)OC1C(C(C)CCCO)=C(CO)CC2OC(=O)C(=C)C21` (stereo not given), the TGI in the assay with NCI-H522 lung is 13.1 µM; with EKVX NSCLC it was 87.2 µM; in the assay on SF-295 CNS, over 100 µM; in the assay with SW-620 colon, 28.8 µM; in the assay on U251 CNS, 45.3 µM; in the assay with COLO 205 colon it was 29.3 µM. In addition, the TGI in the assay with HL-60(TB) leukemia is over 100 µM; in the assay with MDA-MB-435 it was 52.1 µM; in the assay with MALME-3M melanoma it was 17.8 µM; in the assay with LOX IMVI melanoma, 24.5 µM.

As to `CC(C)(C)C1(c2ccc(C3(c4ccccc4)Oc4ccccc4S3)[nH]2)Oc2ccccc2S1` (stereo not given), the TGI with NCI-H522 lung, in the assay on EKVX NSCLC, in the assay on SF-295 CNS, in the assay with SW-620 colon, with U251 CNS and in the assay with HL-60(TB) leukemia was over 100 µM each time. In addition, the TGI with MALME-3M melanoma and in the assay on LOX IMVI melanoma was over 100 µM each time.

Regarding `C=C1CC23CCC4C(C)(C(=O)O)CCCC4(C)C2CCC1C3` (stereo not given), the TGI was 89.7 µM in the assay on NCI-H522 lung; 75.5 µM in the assay with EKVX NSCLC; over 100 µM with SF-295 CNS; over 100 µM in the assay with SW-620 colon; over 100 µM in the assay on U251 CNS; 39.5 µM with COLO 205 colon. Moreover, the TGI with MDA-MB-435, with MALME-3M melanoma and with LOX IMVI melanoma was over 100 µM throughout.
